Data from patent publication US12343368B2, “Cleome droserifolia extract and therapeutic or cosmetic use thereof” (ANPJ HEALTHCARE, priority 2019, dated 2025).

Tests used:
[1] = Antioxidant activity, cell viability (MTT) after hydrogen peroxide stress; assay type: cell-based; settings: mouse, NCTC clone 929 cells, Without H2O2, read-out: Cellular viability (%)
NCTC clone 929 cell line = assay: as above; assay type: cell-based; settings: 0.56 mg/ml; for Absorbance Mean: 570 nm
citrated ovine plasma = assay: Coagulant activity in vitro (coagulation time, coagulometer); assay type: biochemical
Description: The material used is described as follows: • The 6th international standard for unfractionated heparin (WHO 07; 328) • Activated cephaloplastin reagent Dade® Actin®—Siemens • Calcium chloride—Siemens®. • Thermo Scientific coagulometer • Citrated ovine plasma 8.7%. • Aqueous extract of lyophilized Cleome droserifolia The operating protocol is described as follows: The lyophilized extract was dissolved in ultrapure water to obtain a stock concentration of 2 mg/ml. Dilution was carried out to obtain a concentration of 0.6 mg/ml. In a first experiment, 100 μl of each of the following solutions was added to the cuvettes of the coagulometer (n=2): • Lyophilisate solution concentrated at 0.6 mg/ml, • Heparin solution at a concentration of 0.6 IU/ml • Physiological solution for the control group, • Then, 100 μl of sheep plasma was added to all the wells. • After 2 minutes, 100 μl of reactant activated with Cephalosplatin Cade® Actin was added. • After 5 minutes of incubation, 100 μl of calcium chloride solution were added and the coagulation times were recorded.

Compound	viability at 24 h, 0.56 mg/ml [1] [%]	viability at 25 µM (NCTC clone 929 cell line; NCTC clone 929, With H2O2 (25 μM), read-out: Cellular viability (%)) [%]	Absorbance Mean (NCTC clone 929 cell line; With H2O2 (25 μM))	Absorbance Mean (NCTC clone 929 cell line; Without H2O2)	coagulation time (citrated ovine plasma; heparin) [s]	coagulation time (citrated ovine plasma; heparin 0.6 IU/ml) [s]
O=C1O[C@H]([C@@H](O)CO)C(O)=C1O [ascorbic acid]	77.6	74.4	0.3564	0.3719	–	–
Heparin	–	–	–	–	54.3	54.3
